Where two headings read alike, the source gives them in different places.
Tests used:
[1] = test system: retching and vomiting induced by cisplatin; experiment: Ferret model of cisplatin-induced emesis (Tattersall et al.); type: in vivo
[2] = Solubility in isopropyl acetate; type: physicochemical
Procedure: Solubility The solubility of Form I of 2-(R)-(1-(R)-(3,5-bis(trifluoromethyl)-phenyl)ethoxy)-4-(5-(dimethylamino)methyl-1,2,3-triazol-4-yl)methyl-3-(S)-(4-fluorophenyl)morpholine hydrochloride in isopropyl acetate at 25° C. was determined to be 7.4±0.3 mg/ml.

[3] = Stability of the crystalline form as neat solid; type: physicochemical

solubility [2] [µg/mL]	solubility ([2]; 25 °C, organic solvent or mixture, solubility) [µg/mL]	thermodynamic stability of Form I over Form II, from the ratio of the solubilities ([2]; at 25° C., isopropyl acetate)	thermal stability ([3]; as a neat solid)	SMILES	effect on retching and vomiting induced by cisplatin [1]	thermodynamic stability relative to the other form ([3]; Form I versus Form II)
				C[C@@H](O[C@H]1OCCN(Cc2nn[nH]c2CN(C)C)[C@H]1c1ccc(F)cc1)c1cc(C(F)(F)F)cc(C(F)(F)F)c1.Cl [compound of the present invention, 2-(R)-(1-(R)-(3,5-bis(trifluoromethyl)phenyl)ethoxy)-4-(5-(dimethylamino)methyl-1,2,3-triazol-4-yl)methyl-3-(S)-(4-fluorophenyl)-morpholine hydrochloride]	attenuate the retching and vomiting induced by cisplatin	
10900 ± 1100	7400 ± 300	approximately 0.2 kcal/mol	high degree of thermal stability	C[C@@H](O[C@H]1OCCN(Cc2nn[nH]c2CN(C)C)[C@H]1c1ccc(F)cc1)c1cc(C(F)(F)F)cc(C(F)(F)F)c1.Cl [Form I, 2-(R)-(1-(R)-(3,5-bis(trifluoromethyl)phenyl)ethoxy)-4-(5-(dimethylamino)methyl-1,2,3-triazol-4-yl)methyl-3-(S)-(4-fluorophenyl)morpholine hydrochloride]		thermodynamically more stable than Form II
